Like-named read-outs stand apart in the source and are kept apart here. Numbered stars: 1 amine (or outer) side, 2 acyl side, 3 side chain; on linkers, the order of the positions; unused ones are H or OH. Square brackets hold non-standard residues; d marks the D form. Side chains are listed from the residue outwards. Peptide text beside a SMILES is read from it. * marks the point of attachment. γGlu = O=C(O)[C@H](CCC(=O)[*:2])N[*:1]; C14 diacid = O=C(O)CCCCCCCCCCCCC(=O)*; AEEA = NCCOCCOCC(=O)O; Aib = CC(C)(N)C(=O)O
How the values were obtained:
[1] = Estimate of oral bioavailability: gut injection in rat (caprate), exposure in plasma; format: in vivo; conditions: injection in jejunum, 1000 uM in 55 mg/ml sodium caprate, plasma concentration (pM) at 30 min divided by dosing solution concentration (μM), mean n=4
How it was run: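 Male Sprague Dawley rats (~240 g, n=4) received 100 μl of 1000 uM derivative in 55 mg/ml sodium caprate by catheter into proximal or mid jejunum. Tail-vein EDTA plasma was sampled up to 240 min. Peptide was quantified by two-antibody bead chemiluminescence immunoassay, giving mean concentration-time profiles (pmol/l).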

[2] = biological target: T1, human GLP-1 receptor (Homo sapiens, UniProt P43220); experiment: GLP-1 receptor binding: displacement of 125I-GLP-1 (SPA) at low and high albumin; conditions: for Ratio [(IC50/nM) high HSA]/[(IC50/nM) low HSA]: 2.0% HSA vs 0.001% HSA
T1 construct: expressed in transfected cells; membranes
Procedure: The purpose of this experiment is to investigate the binding to the GLP-1 receptor of the GLP-1 derivatives, and how the binding is potentially influenced by the presence of albumin. This is done in an in vitro experiment as described below.
In order to test the binding of the derivatives to albumin, the assay was performed with a low concentration of albumin (0.001%—corresponding to the residual amount thereof in the tracer), as well as with a high concentration of albumin (2.0% added). A shift in the binding affinity, IC50, is an indication that the peptide in question binds to albumin, and thereby a prediction of a potential protracted pharmacokinetic profile of the peptide in question in animal models.
Species (in vitro): Hamster
Biological End Point: Receptor Binding
A stable transfected cell line and a high expressing clone were selected for screening. The cells were grown at 5% CO2 in DMEM, 10% FCS, 1% Pen/Strep (Penicillin/Streptomycin) and 1.0 mg/ml of the selection marker G418.
The cells (approx. 80% confluence) were washed twice in PBS and harvested with Versene (aqueous solution of the tetrasodium salt of ethylenediaminetetraacetic acid), following which they were separated by centrifugation at 1000 rpm for 5 min. The cells/cell pellet must be kept on ice to the extent possible in the subsequent steps. The cell pellet was homogenised with Ultrathurrax for 20-30 seconds in a suitable amount of Buffer 1 (depending on the amount of cells, but e.g. 10 ml). The homogenate was centrifuged at 20000 rpm for 15 minutes. The pellet was resuspended (homogenised) in 10 ml Buffer 2 and re-centrifuged. This step was repeated once more. The resulting pellet was resuspended in Buffer 2, and the protein concentration was determined. The membranes were stored at minus 80° C.
Buffer 1: 20 mM Na-HEPES+10 mM EDTA, pH 7.4
Buffer 2: 20 mM Na-HEPES+0.1 mM EDTA, pH 7.4
Test compounds, membranes, SPA-particles and [^125I]-GLP-1(7-36)NH2 were diluted in assay buffer. 50 ul (micro liter) HSA (“high albumin” experiment containing 2% HSA), or buffer (“low albumin” experiment containing 0.001% HSA), was added to Optiplate, and 25 ul of test compounds were added. 5-10 ug membrane protein/sample was added (50 ul) corresponding to 0.1-0.2 mg protein/ml (to be preferably optimised for each membrane preparation). SPA-particles (Wheatgerm agglutinin SPA beads, Perkin Elmer, #RPNQ0001) were added in an amount of 0.5 mg/well (50 ul). The incubation was started with [^125I]-GLP-1]-(7-36)NH2 (final concentration 0.06 nM corresponding to 49.880 DPM, 25 ul). The plates were sealed with PlateSealer and incubated for 120 minutes at 30° C. while shaking. The plates were centrifuged (1500 rpm, 10 min) and counted in Topcounter.

[3] = low albumin, 0.001% HSA, read-out: IC50/nM (low HSA)

T1 sequence (P43220 24-463): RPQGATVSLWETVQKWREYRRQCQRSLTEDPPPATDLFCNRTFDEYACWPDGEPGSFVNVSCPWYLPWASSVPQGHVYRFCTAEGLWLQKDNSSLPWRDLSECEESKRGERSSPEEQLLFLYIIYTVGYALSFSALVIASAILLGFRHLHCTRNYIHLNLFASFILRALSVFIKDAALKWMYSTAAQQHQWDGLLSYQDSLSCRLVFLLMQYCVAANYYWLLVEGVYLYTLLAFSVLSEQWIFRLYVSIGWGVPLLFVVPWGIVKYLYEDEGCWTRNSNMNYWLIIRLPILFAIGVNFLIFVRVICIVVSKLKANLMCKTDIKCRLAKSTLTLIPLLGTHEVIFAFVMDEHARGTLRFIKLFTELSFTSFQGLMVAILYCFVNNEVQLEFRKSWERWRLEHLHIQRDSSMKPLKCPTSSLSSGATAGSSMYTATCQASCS

| Compound | Dose-corrected exposure at 30 min [1] | Ratio [(IC50/nM) high HSA]/[(IC50/nM) low HSA] [2] | IC50 ([2]; high albumin, 2.0% HSA, read-out: IC50/nM (high HSA)) [nM] | IC50 [2, 3] [nM] |
| --- | --- | --- | --- | --- |
| CC[C@H](C)[C@H](NC(=O)[C@H](Cc1ccccc1)NC(=O)[C@H](CCCCNC(=O)COCCOCCNC(=O)COCCOCCNC(=O)CC[C@H](NC(=O)CCCCCCCCCCCCC(=O)O)C(=O)O)NC(=O)[C@H](CCCNC(=N)N)NC(=O)[C@@H](NC(=O)[C@H](C)NC(=O)[C@H](CCC(N)=O)NC(=O)[C@H](CCCCNC(=O)COCCOCCNC(=O)COCCOCCNC(=O)CC[C@H](NC(=O)CCCCCCCCCCCCC(=O)O)C(=O)O)NC(=O)[C@H](CCC(=O)O)NC(=O)[C@H](CC(C)C)NC(=O)[C@H](Cc1ccc(O)cc1)NC(=O)[C@H](CO)NC(=O)[C@H](CO)NC(=O)[C@@H](NC(=O)[C@H](CC(=O)O)NC(=O)[C@H](CO)NC(=O)[C@@H](NC(=O)[C@H](Cc1ccccc1)NC(=O)[C@@H](NC(=O)CNC(=O)[C@H](CCC(=O)O)NC(=O)C(C)(C)NC(=O)[C@@H](N)Cc1c[nH]cn1)[C@@H](C)O)[C@@H](C)O)C(C)C)C(C)C)C(=O)N[C@@H](C)C(=O)N[C@@H](Cc1c[nH]c2ccccc12)C(=O)N[C@@H](CC(C)C)C(=O)N[C@H](C(=O)N[C@@H](CCCNC(=N)N)C(=O)O)C(C)C [Example 8, N^ε22-[2-[2-[2-[[2-[2-[2-[[(4S)-4-carboxy-4-(13-carboxytridecanoylamino)butanoyl]amino]ethoxy]ethoxy]acetyl]amino]ethoxy]ethoxy]acetyl], N^ε27-[2-[2-[2-[[2-[2-[2-[[(4S)-4-carboxy-4-(13-carboxytridecanoylamino)butanoyl]amino]ethoxy]ethoxy]acetyl]amino]ethoxy]ethoxy]acetyl]-[Aib^8,Lys^22,Val^25,Arg^26,Lys^27,Arg^34]-GLP-1-(7-34)-peptide] (H-H[Aib]EGTFTSDVSSYLEK([AEEA-AEEA-γGlu-C14 diacid])QAVRK([AEEA-AEEA-γGlu-C14 diacid])FIAWLVR-OH) | 86 | 57 | – | – |
| CC[C@H](C)[C@H](NC(=O)[C@H](Cc1ccccc1)NC(=O)[C@H](CCCCNC(=O)COCCOCCNC(=O)COCCOCCNC(=O)CC[C@H](NC(=O)CCCCCCCCCCCCC(=O)O)C(=O)O)NC(=O)[C@H](CCCNC(=N)N)NC(=O)[C@@H](NC(=O)[C@H](C)NC(=O)[C@H](CCC(N)=O)NC(=O)CNC(=O)[C@H](CCC(=O)O)NC(=O)[C@H](CC(C)C)NC(=O)[C@H](Cc1ccc(O)cc1)NC(=O)[C@H](CO)NC(=O)[C@H](CO)NC(=O)[C@@H](NC(=O)[C@H](CC(=O)O)NC(=O)[C@H](CO)NC(=O)[C@@H](NC(=O)[C@H](Cc1ccccc1)NC(=O)[C@@H](NC(=O)CNC(=O)[C@H](CCC(=O)O)NC(=O)C(C)(C)NC(=O)[C@@H](N)Cc1c[nH]cn1)[C@@H](C)O)[C@@H](C)O)C(C)C)C(C)C)C(=O)N[C@@H](C)C(=O)N[C@@H](Cc1c[nH]cn1)C(=O)N[C@@H](CC(C)C)C(=O)N[C@H](C(=O)N[C@@H](CCC(N)=O)C(=O)NCC(=O)N[C@@H](CCCNC(=N)N)C(=O)N[C@@H](CCCCNC(=O)COCCOCCNC(=O)COCCOCCNC(=O)CC[C@H](NC(=O)CCCCCCCCCCCCC(=O)O)C(=O)O)C(=O)O)C(C)C [Example 15, N^ε27-[2-[2-[2-[[2-[2-[2-[[(4S)-4-carboxy-4-(13-carboxytridecanoylamino)butanoyl]amino]ethoxy]ethoxy]acetyl]amino]ethoxy]ethoxy]acetyl], N^ε37-[2-[2-[2-[[2-[2-[2-[[(4S)-4-carboxy-4-(13-carboxytridecanoylamino)butanoyl]amino]ethoxy]ethoxy]acetyl]amino]ethoxy]ethoxy]acetyl]-[Aib^8,Val^25,Arg^26,Lys^27,His^31,Gln^34,Lys^37]-GLP-1-(7-37)-peptide] (H-H[Aib]EGTFTSDVSSYLEGQAVRK([AEEA-AEEA-γGlu-C14 diacid])FIAHLVQGRK([AEEA-AEEA-γGlu-C14 diacid])-OH) | 98 | 155 | 29 | 0.19 |
| CC[C@H](C)[C@H](NC(=O)[C@H](Cc1ccccc1)NC(=O)[C@H](CCCCNC(=O)COCCOCCNC(=O)COCCOCCNC(=O)CC[C@H](NC(=O)CCCCCCCCCCCCC(=O)O)C(=O)O)NC(=O)[C@H](CCCNC(=N)N)NC(=O)[C@@H](NC(=O)[C@H](C)NC(=O)[C@H](CCC(N)=O)NC(=O)CNC(=O)[C@H](CCC(=O)O)NC(=O)[C@H](CC(C)C)NC(=O)[C@H](Cc1ccc(O)cc1)NC(=O)[C@H](CO)NC(=O)[C@H](CO)NC(=O)[C@@H](NC(=O)[C@H](CC(=O)O)NC(=O)[C@H](CO)NC(=O)[C@@H](NC(=O)[C@H](Cc1ccccc1)NC(=O)[C@@H](NC(=O)CNC(=O)[C@H](CCC(=O)O)NC(=O)[C@H](C)NC(=O)[C@@H](N)Cc1c[nH]cn1)[C@@H](C)O)[C@@H](C)O)C(C)C)C(C)C)C(=O)N[C@@H](C)C(=O)N[C@@H](Cc1c[nH]cn1)C(=O)N[C@@H](CC(C)C)C(=O)N[C@H](C(=O)N[C@@H](CCC(N)=O)C(=O)NCC(=O)N[C@@H](CCCNC(=N)N)C(=O)N[C@@H](CCCCNC(=O)COCCOCCNC(=O)COCCOCCNC(=O)CC[C@H](NC(=O)CCCCCCCCCCCCC(=O)O)C(=O)O)C(=O)O)C(C)C [Example 16, N^ε27-[2-[2-[2-[[2-[2-[2-[[(4S)-4-carboxy-4-(13-carboxytridecanoylamino)butanoyl]amino]ethoxy]ethoxy]acetyl]amino]ethoxy]ethoxy]acetyl], N^ε37-[2-[2-[2-[[2-[2-[2-[[(4S)-4-carboxy-4-(13-carboxytridecanoylamino)butanoyl]amino]ethoxy]ethoxy]acetyl]amino]ethoxy]ethoxy]acetyl]-[Val^25,Arg^26,Lys^27,His^31,Gln^34,Lys^37]-GLP-1-(7-37)-peptide] (H-HAEGTFTSDVSSYLEGQAVRK([AEEA-AEEA-γGlu-C14 diacid])FIAHLVQGRK([AEEA-AEEA-γGlu-C14 diacid])-OH; N-terminus and C-terminus assumed) | 115 | – | – | 0.2 |
| CC[C@H](C)[C@H](NC(=O)[C@H](Cc1ccccc1)NC(=O)[C@H](CCCCNC(=O)COCCOCCNC(=O)COCCOCCNC(=O)CC[C@H](NC(=O)CCCCCCCCCCCCC(=O)O)C(=O)O)NC(=O)[C@H](CCCNC(=N)N)NC(=O)[C@@H](NC(=O)[C@H](C)NC(=O)[C@H](CCC(N)=O)NC(=O)[C@H](CCCCNC(=O)COCCOCCNC(=O)COCCOCCNC(=O)CC[C@H](NC(=O)CCCCCCCCCCCCC(=O)O)C(=O)O)NC(=O)[C@H](CCC(=O)O)NC(=O)[C@H](CC(C)C)NC(=O)[C@H](Cc1ccc(O)cc1)NC(=O)[C@H](CO)NC(=O)[C@H](CO)NC(=O)[C@@H](NC(=O)[C@H](CC(=O)O)NC(=O)[C@H](CO)NC(=O)[C@@H](NC(=O)[C@H](Cc1ccccc1)NC(=O)[C@@H](NC(=O)CNC(=O)[C@H](CCC(=O)O)NC(=O)C(C)(C)NC(=O)[C@@H](N)Cc1c[nH]cn1)[C@@H](C)O)[C@@H](C)O)C(C)C)C(C)C)C(=O)N[C@@H](C)C(=O)N[C@@H](Cc1c[nH]c2ccccc12)C(=O)N[C@@H](CC(C)C)C(=O)N[C@H](C(=O)N[C@@H](CCCNC(=N)N)C(=O)NCC(=O)O)C(C)C [Example 9, N^ε22-[2-[2-[2-[[2-[2-[2-[[(4S)-4-carboxy-4-(13-carboxytridecanoylamino)butanoyl]amino]ethoxy]ethoxy]acetyl]amino]ethoxy]ethoxy]acetyl],N^ε27-[2-[2-[2-[[2-[2-[2-[[(4S)-4-carboxy-4-(13-carboxytridecanoylamino)butanoyl]amino]ethoxy]ethoxy]acetyl]amino]ethoxy]ethoxy]acetyl]-Aib^8,Lys^22,Val^25,Arg^26,Lys^27,Arg^34l-GLP-1-(7-35)-peptide] (H-H[Aib]EGTFTSDVSSYLEK([AEEA-AEEA-γGlu-C14 diacid])QAVRK([AEEA-AEEA-γGlu-C14 diacid])FIAWLVRG-OH) | 65 | 157 | – | 0.38 |

Source: patent publication US11117947B2, “Double-acylated GLP-1 derivatives” (Novo Nordisk A/S, priority 2011, dated 2021)
